{"source": "paper PMC10772347", "about": "(Cell Reports Medicine, 2023)", "key": {"[1]": {"target": "NEK7 (Homo sapiens, UniProt Q8TDX7)", "sequence (Q8TDX7 whole entry, looked up)": "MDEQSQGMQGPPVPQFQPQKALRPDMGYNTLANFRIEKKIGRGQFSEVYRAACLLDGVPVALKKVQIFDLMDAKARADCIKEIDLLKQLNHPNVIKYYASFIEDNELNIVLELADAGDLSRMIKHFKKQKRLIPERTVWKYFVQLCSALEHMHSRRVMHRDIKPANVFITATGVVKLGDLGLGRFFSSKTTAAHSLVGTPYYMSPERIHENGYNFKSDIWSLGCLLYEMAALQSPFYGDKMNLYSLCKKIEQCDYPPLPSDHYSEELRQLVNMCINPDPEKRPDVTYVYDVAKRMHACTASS", "test": "DARTS", "format": "cell-based"}, "[2]": {"target": "NEK7 (Mus musculus, UniProt Q9ES74)", "sequence (Q9ES74 whole entry)": "as the sequence (Q8TDX7 whole entry, looked up) above, with P14T, A52S, E150D, M273I, V285I, T286A, S302T counted along it", "test": "CETSA in BMDMs and DARTS in BMDM lysate", "format": "cell-based"}}, "data": [{"smiles": "CN1CCN(c2ccc(C(=O)Nc3n[nH]c4ccc(Cc5cc(F)cc(F)c5)cc34)c(NC3CCOCC3)c2)CC1", "note": "[ENB, entrectinib]", "values": [{"measurement": "DARTS (pronase) in lysate of HEK293T cells overexpressing WT or mutant NEK7 (200)", "setting": "[1]", "value": "R121A, but not I40A mutation, abolished NEK7 binding to ENB (Figure 4D), suggesting that ENB binds to R121 of NEK7"}, {"measurement": "CETSA in BMDMs and DARTS in BMDM lysate (200 uM ENB)", "setting": "[2]", "value": "ENB significantly enhanced the thermal stability of NEK7 even at higher temperatures compared with the DMSO-treated group"}]}]}
